# Reference: PMC3685885 (Toxicology and applied pharmacology, 2013)
# Values joined by “and” are separate entries in the source; they are usually repeats but may differ in a detail not shown here. Equal values may be shown once. Read-outs that look alike come from different tables or passages of the source.
# Assays:
# human CB2Rs [1] = molecular target: T1, human CB2Rs (Homo sapiens, UniProt P34972); assay: [35S]GTPγS binding; type: biochemical; details: CHO-hCB2 membranes; for Intrinsic activity at CB2Rs, G-protein activation: agonists at 10 µM compared to CP-55,940; for CB2R Efficacy (EMAX) G-protein Activation: 10 µM, [35S]GTPγS binding, mean ± SEM
# [2] = molecular target: human mu-opioid receptors (Homo sapiens, UniProt P35372); assay: [35S]GTPγS binding; type: biochemical; details: 10 µM, membranes not expressing hCB2Rs
# human CB2Rs [3] = molecular target: T1, human CB2Rs; assay: Inhibition of forskolin-stimulated adenylyl cyclase; type: cell-based; details: for CB2R Efficacy (EMAX) AC-Inhibition: 10 µM; for Potency to regulate AC-activity relative to the parent compound: IC50 metabolite versus parent; for Intrinsic activity at CB2Rs, AC-inhibition: 10 µM compared to CP-55,940; for FRO for 50% AC-Inhibition: fractional CB2R occupancy at AC-IC50, FRO = [DRUG] / (Ki + [DRUG])
# human CB2Rs [4] = molecular target: T1, human CB2Rs; assay: [3H]CP-55,940 competition receptor binding in CHO-hCB2 membranes
# [5] = intact CHO-hCB2 cells, mean ± SEM
# [6] = read-out: Potency for AC-Inhibition (IC50), intact CHO-hCB2 cells, 30 µM forskolin, mean ± SEM
# [7] = read-out: CB2R Affinity (Ki), [3H]CP-55,940 0.2 nM, CHO-hCB2 membranes, mean ± SEM
# T1 sequence (P34972 whole entry): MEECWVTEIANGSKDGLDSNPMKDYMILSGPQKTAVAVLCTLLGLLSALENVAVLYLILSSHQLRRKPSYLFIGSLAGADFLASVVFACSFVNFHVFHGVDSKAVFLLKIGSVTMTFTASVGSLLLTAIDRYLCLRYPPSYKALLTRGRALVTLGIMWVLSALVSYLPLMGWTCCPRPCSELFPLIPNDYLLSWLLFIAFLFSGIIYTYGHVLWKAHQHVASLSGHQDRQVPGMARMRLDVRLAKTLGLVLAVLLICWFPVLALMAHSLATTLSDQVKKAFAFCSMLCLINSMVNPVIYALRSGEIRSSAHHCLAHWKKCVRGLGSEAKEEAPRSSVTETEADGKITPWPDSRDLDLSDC
# human mu-opioid receptors, sequence (P35372 whole entry): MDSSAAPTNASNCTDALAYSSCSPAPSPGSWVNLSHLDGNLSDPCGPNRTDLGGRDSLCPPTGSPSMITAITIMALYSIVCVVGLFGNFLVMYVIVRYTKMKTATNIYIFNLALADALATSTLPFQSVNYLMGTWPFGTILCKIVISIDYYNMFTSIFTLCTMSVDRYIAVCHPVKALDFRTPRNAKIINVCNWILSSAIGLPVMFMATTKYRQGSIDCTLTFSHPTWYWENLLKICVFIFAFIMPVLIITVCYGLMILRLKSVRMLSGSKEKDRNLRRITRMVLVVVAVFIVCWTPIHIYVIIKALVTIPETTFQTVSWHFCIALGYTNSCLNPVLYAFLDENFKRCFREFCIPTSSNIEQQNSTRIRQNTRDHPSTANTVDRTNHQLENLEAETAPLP
Molecule,"Intrinsic activity at CB2Rs, G-protein activation (human CB2Rs [1])",CB2R Efficacy (EMAX) AC-Inhibition (human CB2Rs [3]; [5]),CB2R Efficacy (EMAX) G-protein Activation (human CB2Rs [1]),Ki (human CB2Rs [4]; [7]),other results
"COc1ccc(C(=O)c2c(C)n(CCN3CCOCC3)c3cc(I)ccc23)cc1 [AM-630, reference compound]",acted as inverse agonists,–,–,–,–
"CCCCCOc1c(OC)ccc2cc(C(=O)NCc3ccc4c(c3)OCO4)c(=O)[nH]c12 [JTE-907, reference compound]",acted as inverse agonists,–,–,–,–
"CCCCCn1cc(C(=O)c2cccc3ccccc23)c2ccccc21 [JWH-018, 1-pentyl-3-(1-naphthoyl)indole]",–,59.3 ± 4.0 (4) % Inhibition,60.3 ± 11.4 (7) fmole/mg,–,Effect on G-protein activity in CHO-hMOR membranes [2]: failed to significantly alter G-protein activity; IC50 (human CB2Rs [3]): 3.6 ± 2.2 nM; Ki (human CB2Rs [4]): 5.6 ± 2.4 nM
O=C(c1cccc2ccccc12)c1cn(CCCCCO)c2ccccc12 [JWH-018-M5],–,53.5 ± 4.6 (4) % Inhibition,38.4 ± 8.5 (5) fmole/mg,47.4 ± 10.1 nM,"Potency to regulate AC-activity relative to the parent compound (human CB2Rs [3]): ~5 fold; Intrinsic activity at CB2Rs, AC-inhibition (human CB2Rs [3]; intact CHO-hCB2 cells): partial CB2R agonists; IC50 (human CB2Rs [3]; [6]): 17.7 ± 5.5 nM"
O=C(O)CCCCn1cc(C(=O)c2cccc3ccccc23)c2ccccc21 [JWH-018-M6],–,–,–,> 10000 nM,CB2R affinity (human CB2Rs [4]; CHO-hCB2 membranes): lack affinity for CB2Rs
"CCCCn1cc(C(=O)c2cccc3ccccc23)c2ccccc21 [JWH-073, 1-butyl-3-(1-naphthoyl)indole]",–,62.6 ± 2.7 (3) % Inhibition,40.1 ± 4.2 (3) fmole/mg,–,"Effect on G-protein activity in CHO-hMOR membranes [2]: failed to significantly alter G-protein activity; IC50 (human CB2Rs [3]): 16.9 ± 1.9 nM; FRO for 50% AC-Inhibition (human CB2Rs [3]): 62.5% and 62.5 ± 3.0 (5) %; Intrinsic activity at CB2Rs, AC-inhibition (human CB2Rs [3]; intact CHO-hCB2 cells): full agonists"
O=C(c1cccc2ccccc12)c1cn(CCCCO)c2ccccc12 [JWH-073-M5],–,54.2 ± 5.9 (4) % Inhibition,31.0 ± 1.0 (3) fmole/mg,96 ± 7.1 nM,Potency to regulate AC-activity relative to the parent compound (human CB2Rs [3]): equipotent; FRO for 50% AC-Inhibition (human CB2Rs [3]): 12.1% and 12.1 ± 1.6 (3) %; IC50 (human CB2Rs [3]; [6]): 13.3 ± 2 nM
O=C(O)CCCn1cc(C(=O)c2cccc3ccccc23)c2ccccc21 [JWH-073-M6],–,–,–,> 10000 nM,CB2R affinity (human CB2Rs [4]; CHO-hCB2 membranes): lack affinity for CB2Rs
SR-144528 [reference compound],acted as inverse agonists,–,–,–,–
